Experiment: gradient 5% acetonitrile 3 min, to 50% in 2 min, to 85% in 15 min, held 3 min, 100 µL/min
Conditions: column: Zorbax Extend-C18 2.1 x 50 mm; eluents: water / acetonitrile, 0.1% formic acid
Procedure, shortened: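 Each retention time is based on an adduct peak selected computationally and verified by manual inspection. Measurements used HPLC–quadrupole time-of-flight mass spectrometry in positive and negative ionization mode on mixtures of ~100 pure standards. Chromatography ran on a Zorbax Extend-C18 column (2.1 × 50 mm, 1.8 μm) at 100 μL/min with water and acetonitrile, each containing 0.1% formic acid, and dead and dwell volumes of 40 μL and 900 μL.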

Row | SMILES | RP-LC retention time
1 | Cc1csc(-c2cc(S(=O)(=O)Nc3ccc(F)c(F)c3)cn2CC(=O)N2CCCC2)n1 | 927 s
2 | CSc1ccc(-c2nc3cccc(C)n3c2Nc2ccc3c(c2)OCO3)cc1 | 712 s
3 | CC1CCN(C(=O)C2CCc3sc(C(=O)N4CCOCC4)cc3C2)CC1 (stereo unspecified) | 776 s
4 | CC(C)CC(NC(=O)Cc1cccs1)C(=O)Nc1nc2ccccc2[nH]1 (stereo unspecified) | 716 s
5 | Cc1ccc(S(=O)(=O)N2CCC(CC(=O)NCCN(C)Cc3ccccc3)CC2)cc1 | 683 s
6 | COc1ccccc1CCC(=O)N1C[C@@H]2C[C@H](NS(C)(=O)=O)[C@H]1C2 | 678 s
7 | Cc1nc(-c2ccc3c(c2)n(CC(=O)NCc2ccc4c(c2)OCO4)c(=O)n3C(C)C)no1 | 619 s
8 | COc1ccc(Br)cc1CNC(=O)Cn1cnc2onc(C)c2c1=O | 815 s
9 | COc1ccc(-c2nc(C3CC(=O)N(c4ccc(Cl)cc4)C3)no2)c(C)c1 (stereo unspecified) | 1140 s
10 | O=C(c1csc(N2CCN(c3ccc(Cl)cc3)CC2)n1)N1CCOCC1 | 942 s
11 | CCn1cc(C2=CCN(S(=O)(=O)c3ccc(F)cc3)CC2)c2cccnc21 | 1020 s
12 | Cc1nn(-c2ccccc2)c2c1N(C(=O)CCC(=O)NCCc1c[nH]c3ccccc13)CCS2 | 850 s
13 | Cc1csc(NC(=O)C2CCN(S(=O)(=O)c3cc(C(=O)N4CCOCC4)cs3)CC2)n1 | 702 s
14 | Cc1ccc(-n2cc3c(N4CCCC(C(=O)NC(C)c5ccc(F)cc5)C4)ncnc3n2)cc1 (stereo unspecified) | 741 s
15 | Cc1ccc(NC(=O)C2CCCN2S(=O)(=O)c2cc3c(cc2C)NC(=O)CO3)cc1 (stereo unspecified) | 758 s
16 | CN1CCN(CCCNC(=O)CC2CCN(C(=O)c3cc4cc(Cl)ccc4[nH]3)CC2)CC1 | 569 s
17 | CC(C)c1ccc(OCC(=O)N(Cc2ccc(Br)o2)C2CCS(=O)(=O)C2)cc1 (stereo unspecified) | 1050 s
18 | Cc1ccccc1C(=O)CC1(O)C(=O)Nc2ccc(F)cc21 (stereo unspecified) | 730 s
19 | CS(=O)(=O)N1CCC(C(=O)NCc2ccco2)Oc2ccc(Cl)cc21 (stereo unspecified) | 839 s
20 | Cc1cc(F)ccc1N1C(=O)CN(S(C)(=O)=O)CC1(C)C(=O)NCc1ccc(F)cc1 (stereo unspecified) | 814 s
21 | CCc1cc(=O)n(CC(=O)Nc2ccc(F)cc2C)c(N)n1 | 599 s
22 | Cc1ccc(-c2cc(C(=O)NCCc3sccc3C)c(C)[nH]2)cc1C | 1040 s
23 | Cc1ccc(NC(=O)Nc2c(Cl)cccc2Cl)cn1 | 905 s

Row | SMILES | RP-LC retention time
24 | OCCNCc1ccc(-c2cc(Cl)cc(Cl)c2)o1 | 676 s
25 | Cc1ccc(C(C)NC(=O)C2CCN(c3ccc4nncn4n3)CC2)cc1 (stereo unspecified) | 736 s
26 | O=C(C1CCN(S(=O)(=O)c2cccc3nonc23)CC1)N1CCc2ccccc2C1 | 913 s
27 | Cc1ccc(NC(=O)C2CCCN2S(=O)(=O)c2cc3c(cc2Cl)NC(=O)CO3)c(C)c1 (stereo unspecified) | 868 s
28 | Cc1nn(C)c2nc(OC(C)C(=O)Nc3ccccc3F)cc(C(F)(F)F)c12 (stereo unspecified) | 1050 s
29 | Cc1nnc(-c2ccc3ccn(CC(=O)Nc4ccc5c(c4)OCCO5)c3c2)o1 | 756 s
30 | CC(=O)Nc1ccc(C(=O)N2CCN(c3cc(-c4ccc(Cl)cc4)[nH]n3)CC2)cc1 | 708 s
31 | O=C(NC1CCCC1)c1ccc2c(c1)CCN2C(=O)C1CC1 | 751 s
32 | COc1cn(CC(=O)NCc2ccc3c(c2)OCO3)c(CSc2ccccc2)cc1=O | 618 s
33 | COc1ccc(C(=O)N2CCC3(CC2)N=C(c2cccc(Br)c2)NO3)c(OC)c1 | 832 s
34 | O=C(Nc1ccc(N2CCN(c3ccccc3)C2=O)nc1)c1ccc(F)cc1 | 934 s
35 | CCOC(=O)C1CCN(C(=O)C2CCc3nc(N(CC)CC)ncc3C2)CC1 (stereo unspecified) | 630 s
36 | CN(C)c1ccc(C(=O)NCC(C)(O)c2ccco2)cc1 (stereo unspecified) | 665 s
37 | CCOC(=O)c1ccc(NC2=NS(=O)(=O)C(c3ccc(F)cc3)=C2C)cc1 | 948 s
38 | COc1ccc(CCNC(=O)c2ccc3c(c2)N(C)C(=O)C2CCCCN32)cc1OC (stereo unspecified) | 774 s
39 | Cc1cnc(C(=O)NC2C[C@H]3CC[C@@H](C2)N3S(=O)(=O)c2c(C)noc2C)cn1 (stereo partly specified) | 726 s
40 | Cc1ccccc1CNC(=O)C1CC(=O)N(c2ccc3c(c2)CCN3C(=O)C2CC2)C1 (stereo unspecified) | 702 s
41 | Cc1cnc(-c2ccccc2C(C)C)nc1NCc1ccc(-n2ccnn2)cc1 | 770 s
42 | Nc1cccc(-c2nc3ccccc3[nH]2)c1 | 532 s
43 | O=C1NCCCn2cc(S(=O)(=O)N3CCN(c4ccc(Cl)cc4)CC3)cc21 | 804 s
44 | CCN1CCn2cc(S(=O)(=O)NCc3ccc(C)c(C)c3)cc2C1=O | 761 s
45 | CSc1cccc(NS(=O)(=O)c2cc3c(s2)CCN(C(=O)C2CC2)C3)c1 | 860 s

Other lines, results leading:

Row | RP-LC retention time | SMILES
46 | 892 s | Cn1cc(-c2ccccc2)cc1C(=O)NCc1ccc(N2CCOCC2)cc1
47 | 858 s | CCOc1ccccc1NC(=O)N1CCCC1c1nc(-c2cccc(C)c2)no1 (stereo unspecified)
48 | 1060 s | O=C(NCc1ccco1)C1CCN(c2ccc(Sc3ccccc3)nn2)CC1
49 | 919 s | CCS(=O)(=O)N1CC(=O)N(c2cc(Cl)ccc2C)C(C)(C(=O)NCc2ccccc2)C1 (stereo unspecified)
50 | 690 s | Clc1ccc(OCc2nc(-c3ccc4c(c3)ncn4CCN3CCCC3)no2)cc1
51 | 787 s | CC1(C(=O)NCc2ccccc2)CN(S(=O)(=O)c2ccccc2)CC(=O)N1C1CCCC1 (stereo unspecified)
52 | 857 s | CC1(C(=O)NCc2ccc(F)cc2)CCCN(C(=O)NCCc2ccccc2)C1 (stereo unspecified)
53 | 641 s | CCCNC(=O)N1CCN(Cc2nc3cccnc3n2-c2ccc(CC)cc2)CC1
54 | 696 s | O=C(Cc1csc2nc(-c3ccccc3)cn12)NCc1ccco1
55 | 984 s | CCc1nc(-c2csc(S(=O)(=O)N3CCC(C(=O)NCc4ccccc4Cl)CC3)c2)no1
56 | 869 s | COc1ccc(-c2noc(CSc3nccn3-c3ccccc3)n2)cc1
57 | 552 s | Cc1nc2ccn(Cc3cccnc3)c(=O)c2cc1C(=O)N1CCOCC1
58 | 527 s | O=C(NCCN1CCCCC1)c1nc2ccccn2c1-c1ccsc1
59 | 884 s | CCc1nc(-c2csc(S(=O)(=O)N3CCCC(C(=O)Nc4nccs4)C3)c2)no1 (stereo unspecified)
60 | 664 s | O=C(Cn1nc2c(c1NC(=O)c1cnccn1)CSC2)NCc1ccco1
61 | 651 s | Cn1nnc2cc(CNC(=O)c3ccccn3)ccc21
62 | 1060 s | CCc1noc(C2(NC(=O)c3nccc4ccccc34)CCCCC2)n1
63 | 976 s | CCc1nc(-c2csc(S(=O)(=O)N3CCCC(C(=O)NCc4ccc(F)cc4)C3)c2)no1 (stereo unspecified)
64 | 946 s | CS(=O)(=O)Nc1ccc(C2(C(=O)NCc3ccccc3Cl)CCCCC2)cc1
65 | 646 s | Cc1nc(-c2noc(-c3cccnc3)n2)cn1CC(=O)NC1CCCC1
66 | 694 s | CCC(=O)N1CCCN(C2=NS(=O)(=O)C(c3ccccc3)=C2C)CC1

Source: the METLIN SMRT retention time set (Domingo-Almenara et al. 2019)
